Data as given in ChEMBL document CHEMBL1150051, “Antiviral (RNA) activity of selected Amaryllidaceae isoquinoline constituents and synthesis of related substances” (J Nat Prod, 1992).
In brackets after ≈: the same amount, converted by molar mass.

What was measured:
[1] = system: Japanese encephalitis virus; test: Antiviral activity against Japanese encephalitis virus Nakayama infected in african green monkey Vero cells assessed as inhibition of virus-induced cytopathic effect by MTT assay; assay type: functional, organism-based
[2] = Therapeutic index, ratio of TC50 for african green monkey Vero cells to IC50 for Japanese encephalitis virus Nakayama; assay type: cell-based; conditions: read-out: TI
Yellow fever virus = test: Antiviral activity against Yellow fever virus Ashibi infected in african green monkey Vero cells assessed as inhibition of virus-induced cytopathic effect by MTT assay; assay type: functional, organism-based
[3] = Therapeutic index, ratio of TC50 for african green monkey Vero cells to IC50 for Yellow fever virus Ashibi; assay type: cell-based; conditions: read-out: TI
dengue virus type 4 = test: Antiviral activity against Dengue virus type 4 infected in african green monkey Vero cells after 6 days by plaque reduction assay; assay type: functional, organism-based
[4] = Therapeutic index, ratio of TC50 for african green monkey Vero cells to IC50 for Dengue type 4 virus; assay type: cell-based; conditions: read-out: TI
Punta Toro virus = test: Antiviral activity against Punta Toro virus Adames infected in african green monkey Vero cells assessed as inhibition of virus-induced cytopathic effect by MTT assay; assay type: functional, organism-based
[5] = Therapeutic index, ratio of TC50 for african green monkey Vero cells to IC50 for Punta toro virus Adames; assay type: cell-based; conditions: read-out: TI
Rift Valley fever virus = test: Antiviral activity against Rift Valley fever virus infected in african green monkey Vero cells after 6 days by plaque reduction assay; assay type: functional, organism-based
[6] = Therapeutic index, ratio of TC50 for african green monkey Vero cells to IC50 for Rift valley fever virus; assay type: cell-based; conditions: read-out: TI
[7] = system: Sandfly fever Sicilian virus; test: Antiviral activity against Sandfly fever sicilian virus infected in african green monkey Vero cells assessed as inhibition of virus-induced cytopathic effect by MTT assay; assay type: functional, organism-based
[8] = Therapeutic index, ratio of TC50 for african green monkey Vero cells to IC50 for Sandfly fever sicilian virus; assay type: cell-based; conditions: read-out: TI
[9] = Japanese encephalitis virus, Nakayama, Vero, read-out: IC50
[10] = Yellow fever virus, Ashibi, Vero, read-out: IC50
[11] = Dengue virus, Vero, 144 h, read-out: IC50
[12] = Punta Toro virus, Adames, Vero, read-out: IC50
[13] = Rift Valley fever virus, Vero, 144 h, read-out: IC50
[14] = sandfly fever Sicilian virus, Vero, read-out: IC50

| SMILES | IC50 [1, 9] [µg/mL] | selectivity ratio [2] | IC50 (Yellow fever virus; [10]) [µg/mL] | selectivity ratio [3] | IC50 (dengue virus type 4; [11]) [µg/mL] | selectivity ratio [4] | IC50 (Punta Toro virus; [12]) [µg/mL] | selectivity ratio [5] | IC50 (Rift Valley fever virus; [13]) [µg/mL] | selectivity ratio [6] | IC50 [7, 14] [µg/mL] | selectivity ratio [8] | IC50 ([1]; vero) | IC50 (Yellow fever virus; vero) | IC50 (dengue virus type 4; vero) | IC50 (Punta Toro virus; vero) | IC50 (Rift Valley fever virus; vero) | IC50 ([7]; vero) | inhibition (INH) (Yellow fever virus) [%] | inhibition (INH) [7] [%] |
| --- | --- | --- | --- | --- | --- | --- | --- | --- | --- | --- | --- | --- | --- | --- | --- | --- | --- | --- | --- | --- |
| O=C1N[C@@H]2C(=C[C@H](O)[C@@H](O)[C@H]2O)c2cc3c(cc21)OCO3 | 0.056 (≈ 0.192 µM) | 4.9 | 0.053 (≈ 0.182 µM) | 5.6 | 0.059 (≈ 0.203 µM) | 4.2 | 0.042 (≈ 0.144 µM) | 6.3 | 0.15 (≈ 0.515 µM) | 5.5 | 0.058 (≈ 0.199 µM) | 4.5 |  |  |  |  |  |  |  |  |
| CC(=O)O[C@@H]1[C@H](OC(C)=O)[C@@H](OC(C)=O)C=C2c3cc4c(cc3C(=O)N[C@H]21)OCO4 [LYCORICIDINE TRIACETATE] |  |  |  |  |  |  |  |  |  |  |  |  | Not Active | Not Active | Not Active | Not Active | Not Active | Not Active |  |  |
| O=c1[nH]c2c(c3cc4c(cc13)OCO4)C[C@H](O)[C@@H](O)[C@H]2O |  |  | 5.7 (≈ 19.6 µM) | 4.2 | 8.5 (≈ 29.2 µM) | 5.9 | 7.2 (≈ 24.7 µM) | 3.7 | 10 (≈ 34.3 µM) | 5 |  |  | Not Active |  |  |  |  | Not Active |  |  |
| CC(=O)O[C@@H]1[C@@H](OC(C)=O)[C@H](OC(C)=O)[C@@H]2c3cc4c(cc3C(=O)N[C@H]2[C@@H]1OC(C)=O)OCO4 | 724 (≈ 1520 µM) | 2.8 | 262 (≈ 549 µM) | 3.8 |  |  |  |  |  |  |  |  |  |  |  | Not Active | Not Active | Not Active |  |  |
| O=C1N[C@H]2[C@H](O)[C@H](O)[C@@H](O)C[C@H]2c2cc3c(cc21)OCO3 | 12.7 (≈ 43.3 µM) | 4.9 | 9.6 (≈ 32.7 µM) | 6.6 | 4.4 (≈ 15 µM) | 5.7 | 14 (≈ 47.7 µM) | 4.8 |  |  | 25 (≈ 85.2 µM) | 3 |  |  |  |  |  |  |  |  |
| O=C1N[C@H]2C[C@@H](O)[C@@H](O)[C@H](O)[C@@H]2c2cc3c(cc21)OCO3 |  |  |  |  |  |  |  |  |  |  |  |  | Not Active | Not Active |  | Not Active | Not Active | Not Active |  |  |
| O=C1N[C@H]2CC=C[C@H](O)[C@@H]2c2cc3c(cc21)OCO3 |  |  |  |  |  |  |  |  |  |  |  |  | Not Active | Not Active |  | Not Active | Not Active | Not Active |  |  |
| O=C1N[C@H]2C=C[C@@H](O)[C@H](O)[C@@H]2c2cc3c(cc21)OCO3 |  |  |  |  |  |  |  |  |  |  |  |  | Not Active | Not Active |  | Not Active | Not Active | Not Active |  |  |
| O=c1[nH]c2c(c3cc4c(c(O)c13)OCO4)C[C@H](O)[C@@H](O)[C@H]2O [ISONARCICLASINE] | 0.72 (≈ 2.34 µM) | 2.1 | 0.22 (≈ 0.716 µM) | 4.1 | 0.27 (≈ 0.879 µM) | 18.5 | 0.28 (≈ 0.911 µM) | 5.1 | 3.3 (≈ 10.7 µM) | 7.6 |  |  |  |  |  |  |  | Not Active |  |  |
| CO[C@@H]1C=C[C@@]23c4cc5c(cc4C(O)O[C@H]2CN(C)[C@H]3C1)OCO5 (stereo partly specified) [PRETAZETTINE] | 0.6 (≈ 1.81 µM) | 3.8 | 0.5 (≈ 1.51 µM) | 5.6 |  |  | 0.61 (≈ 1.84 µM) | 3.7 | 2.9 (≈ 8.75 µM) | 3.5 | 0.82 (≈ 2.47 µM) | 3 |  |  |  |  |  |  |  |  |
| CC(=O)O[C@@H]1[C@@H](O)[C@@H](O)[C@@H]2NC(=O)c3cc4c(cc3[C@H]2[C@H]1O)OCO4 [LYCORICIDINE MONOACETATE] | 3.3 | 3.3 | 4.8 | 4.3 | 1.5 | 33.3 | 4.7 | 2.1 | 5.5 | 4.4 |  |  |  |  |  |  |  | Not Active |  |  |
| CC(=O)O[C@@H]1[C@@H](OC(C)=O)[C@H](O)[C@@H]2c3cc4c(cc3C(=O)N[C@H]2[C@@H]1OC(C)=O)OCO4 | 4.5 (≈ 10.3 µM) | 3.6 | 2.2 (≈ 5.05 µM) | 3.8 | < 5 | > 20 | 2.5 (≈ 5.74 µM) | 4.2 |  |  |  |  |  |  |  |  | Not Active | Not Active |  |  |
| O=C1N[C@H]2[C@H](O)[C@H](O)[C@@H](O)C[C@@H]2c2cc3c(cc21)OCO3 | 0.039 (≈ 0.133 µM) | 5.6 | 0.037 (≈ 0.126 µM) | 7.5 | 0.5 (≈ 1.7 µM) | 5 | 0.057 (≈ 0.194 µM) | 5.9 | 0.25 (≈ 0.852 µM) | 2 |  |  |  |  |  |  |  | Not Active |  |  |
| COc1cc2c(cc1O)[C@@H]1[C@H](O)[C@@H](O)C=C3CCN(C2)[C@H]31 [PSEUDOLYCORINE] | 0.28 (≈ 0.968 µM) | 5 | 0.35 (≈ 1.21 µM) | 3.7 | 0.39 (≈ 1.35 µM) | 2.6 | 0.6 (≈ 2.07 µM) | 3.9 | 0.63 (≈ 2.18 µM) | 6 |  |  |  |  |  |  |  | Not Active |  |  |
| CC(=O)Oc1c2c(cc3c1C(=O)N[C@H]1[C@H](OC(C)=O)[C@H](OC(C)=O)[C@@H](OC(C)=O)C[C@@H]31)OCO2 | 8.1 (≈ 17 µM) | 3.5 |  |  |  |  | 12 (≈ 25.1 µM) | 6.4 |  |  |  |  |  |  |  |  |  |  | 25 | 25 |
| O[C@H]1[C@H]2c3cc4c(cc3CN3CCC(=C[C@@H]1O)[C@H]23)OCO4 [LYCORINE] | 0.33 (≈ 1.15 µM) | 8.2 | 0.28 (≈ 0.975 µM) | 7.3 | 0.24 (≈ 0.835 µM) | 10.4 | 0.5 (≈ 1.74 µM) | 4.6 | 0.93 (≈ 3.24 µM) | 5.4 |  |  |  |  |  |  |  | Not Active |  |  |
| O=C1N[C@@H]2C(=C[C@H](O)[C@@H](O)[C@H]2O)c2cc3c(c(O)c21)OCO3 [NARCICLASINE] | 0.008 (≈ 0.026 µM) | 4.08 | 0.006 (≈ 0.0195 µM) | 6.1 | 0.015 (≈ 0.0488 µM) | 4 | 0.0074 (≈ 0.0241 µM) | 3.9 |  |  |  |  |  |  |  |  | Not Active | Not Active |  |  |
| O=C1N[C@H]2C=C[C@@H](O)[C@H](OC3CCCCO3)[C@@H]2c2cc3c(cc21)OCO3 (stereo partly specified) |  |  |  |  |  |  |  |  |  |  |  |  | Not Active | Not Active |  | Not Active | Not Active | Not Active |  |  |
| O=C1N[C@H]2[C@H](O)[C@H](O)[C@@H](O)C[C@H]2c2cc3c(c(O)c21)OCO3 | 0.96 (≈ 3.1 µM) | 5.1 | 1.3 (≈ 4.2 µM) | 3.9 | 2.5 (≈ 8.08 µM) | > 2 | 2.2 (≈ 7.11 µM) | 3.6 | 1.4 (≈ 4.53 µM) | 3.6 |  |  |  |  |  |  |  |  |  | 25 |
| O=C1N[C@H]2[C@H](O)[C@H](O)[C@@H](O)C[C@@H]2c2cc3c(c(O)c21)OCO3 | 0.004 (≈ 0.0129 µM) | 5.6 | < 0.003 | > 8.5 | 0.015 (≈ 0.0485 µM) | 4.2 | 0.008 (≈ 0.0259 µM) | 3.3 |  |  |  |  |  |  |  |  |  | Not Active |  |  |
